Source: ChEMBL document CHEMBL4184281, “Pharmacology and in vivo efficacy of pyridine-pyrimidine amides that inhibit microtubule polymerization” (Bioorg Med Chem Lett, 2018)
The source made the active and inactive calls. The rule behind the calls is not given here.

Legend:
[1] = Toxicity in mouse; assay type: organism-based; conditions: in vivo
SNU-16 [2] = test: Antitumor activity against human SNU16 cells xenografted in nude BALB/c mouse assessed as tumor growth inhibition relative to control; assay type: functional
[3] = Tmax in CD-1 mouse administered as single po dose by mass spectrometry; assay type: ADME, organism-based; conditions: in vivo
[4] = Efflux ratio of apparent intrinsic permeability in human Caco2 cells after 120 mins by mass spectrometry; assay type: ADME, cell-based; conditions: Caco-2
in vitro [5] = conditions: human, Caco-2
Description: Apparent intrinsic permeability in human Caco2 cells from apical to basolateral side after 120 mins by mass spectrometry

in vitro [6] = conditions: human, Caco-2; remark: listed apart in the source
Description: Apparent intrinsic permeability in human Caco2 cells from basolateral to apical side after 120 mins by mass spectrometry

[7] = Toxicity in mouse administered as single po dose; assay type: organism-based; conditions: in vivo
A2780 [8] = test: Antitumor activity against human A2780 cells xenografted in nude BALB/c mouse assessed as tumor growth inhibition at 20 mg/kg, po qd measured up to 12 days post dose; assay type: functional, organism-based
Mus musculus [9] = test: Toxicity in nude BALB/c mouse xenografted with human A2780 cells assessed as change in body weight at 20 mg/kg, po qd measured up to 12 days post dose; assay type: organism-based; conditions: in vivo, 288 h
A2780 [10] = test: Antitumor activity against human A2780 cells xenografted in nude BALB/c mouse assessed as tumor growth inhibition at 15 mg/kg, po administered every other day measured up to 12 days post dose; assay type: functional, organism-based
Mus musculus [11] = test: Toxicity in nude BALB/c mouse xenografted with human A2780 cells assessed as change in body weight at 15 mg/kg, po administered every other day measured up to 12 days post dose; assay type: organism-based; conditions: in vivo, 288 h
[12] = Unbound fraction in plasma (unknown origin); assay type: ADME, cell-free
[13] = Protein binding in plasma (unknown origin); assay type: ADME, cell-free; conditions: read-out: PPB (converted)
[14] = Drug recovery in plasma (unknown origin); assay type: ADME, cell-free
[15] = Stability in human plasma assessed as parent compound remaining after 75 mins relative to initial time; assay type: ADME, cell-free; conditions: read-out: Stability
[16] = Stability in human plasma assessed as parent compound remaining after 2 hrs relative to initial time; assay type: ADME, cell-free; conditions: read-out: Stability
[17] = Stability in human plasma assessed as parent compound remaining after 4 hrs relative to initial time; assay type: ADME, cell-free; conditions: read-out: Stability
[18] = Stability in human plasma assessed as parent compound remaining after 8 hrs relative to initial time; assay type: ADME, cell-free; conditions: read-out: Stability
[19] = Stability in human plasma assessed as parent compound remaining after 24 hrs relative to initial time; assay type: ADME, cell-free; conditions: read-out: Stability
[20] = Half life in mouse liver microsomes; assay type: ADME, microsome
[21] = Half life in rat liver microsomes; assay type: ADME, microsome
[22] = Half life in dog liver microsomes; assay type: ADME, Canis lupus familiaris, microsome
[23] = Half life in human liver microsomes; assay type: ADME, microsome
Cytochrome P450 1A2 = biological target: T1, Cytochrome P450 1A2 (Homo sapiens, UniProt P05177); test: Inhibition of CYP1A2 (unknown origin); assay type: ADME
T1 sequence (P05177 whole entry): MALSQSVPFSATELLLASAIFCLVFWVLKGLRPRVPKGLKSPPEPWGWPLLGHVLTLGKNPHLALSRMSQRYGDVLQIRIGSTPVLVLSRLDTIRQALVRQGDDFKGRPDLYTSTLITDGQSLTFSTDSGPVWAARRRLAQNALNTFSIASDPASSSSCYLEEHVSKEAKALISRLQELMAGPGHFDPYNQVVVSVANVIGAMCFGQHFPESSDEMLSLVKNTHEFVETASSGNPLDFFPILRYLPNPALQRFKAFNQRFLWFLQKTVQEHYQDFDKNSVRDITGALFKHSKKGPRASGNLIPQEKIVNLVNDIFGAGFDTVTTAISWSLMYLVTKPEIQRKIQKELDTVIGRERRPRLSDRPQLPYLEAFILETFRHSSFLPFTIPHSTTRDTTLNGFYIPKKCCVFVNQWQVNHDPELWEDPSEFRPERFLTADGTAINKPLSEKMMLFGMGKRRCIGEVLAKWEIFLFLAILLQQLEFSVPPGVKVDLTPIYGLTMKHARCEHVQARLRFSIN

Cytochrome P450 2C9 = Cytochrome P450 2C9 (Homo sapiens, UniProt P11712); test: Inhibition of CYP2C9 (unknown origin); assay type: ADME
Cytochrome P450 2C19 = Cytochrome P450 2C19 (Homo sapiens, UniProt P33261); test: Inhibition of CYP2C19 (unknown origin); assay type: ADME
Cytochrome P450 2D6 = Cytochrome P450 2D6 (Homo sapiens, UniProt P10635); test: Inhibition of CYP2D6 (unknown origin); assay type: ADME
Cytochrome P450 3A4 = Cytochrome P450 3A4 (Homo sapiens, UniProt P08684); test: Inhibition of CYP3A4 (unknown origin); assay type: ADME
SNU-16 [24] = test: Antitumor activity against human SNU16 cells harboring luciferase orthotopically implanted in gastric mucosa of Balb/c nude mouse assessed as tumor growth inhibition at 20 mg/kg, po qd administered for 5 days per week for 3 weeks starting from 1 week post tumor implantation by luminescence imaging method; assay type: functional, organism-based
MFE-296 [25] = test: Antitumor activity against human MFE296 cells xenografted in nude BALB/c mouse assessed as tumor growth inhibition at 15 mg/kg, po qd administered via gavage for 10 days; assay type: functional, organism-based
Mus musculus [26] = test: Toxicity in nude BALB/c mouse xenografted with human MFE296 cells assessed as body weight loss at 15 mg/kg, po qd administered via gavage for 10 days measured after 6 days; assay type: organism-based; conditions: in vivo, 144 h
MFE-296 [27] = test: Antitumor activity against human MFE296 cells xenografted in nude BALB/c mouse assessed as tumor growth inhibition at 3.75 to 7.5 mg/kg, po qd administered via gavage for 10 days relative to control; assay type: functional
Mus musculus [28] = test: Toxicity in nude BALB/c mouse xenografted with human MFE296 cells assessed as body weight loss at 3.75 to 7.5 mg/kg, po qd administered via gavage for 10 days; assay type: organism-based; conditions: in vivo, 240 h
Hs-578T [29] = test: Antiproliferative activity against human Hs 578T cells up to 1000 nM after 72 hrs by ATPlite assay; assay type: functional, cell-based
BT-549 [30] = test: Antiproliferative activity against human BT549 cells up to 1000 nM after 72 hrs by ATPlite assay; assay type: functional, cell-based
MDA-MB-436 [31] = test: Antiproliferative activity against human MDA-MB-436 cells up to 1000 nM after 72 hrs by ATPlite assay; assay type: functional, cell-based
Hs-578T [32] = test: Antiproliferative activity against paclitaxel-resistant human Hs 578T cells 20B clone up to 1000 nM after 72 hrs by ATPlite assay; assay type: functional, cell-based
Hs-578T [33] = test: Antiproliferative activity against paclitaxel-resistant human Hs 578T cells 10C clone up to 1000 nM after 72 hrs by ATPlite assay; assay type: functional, cell-based
BT-549 [34] = test: Antiproliferative activity against paclitaxel-resistant human BT549 cells 10A clone up to 1000 nM after 72 hrs by ATPlite assay; assay type: functional, cell-based
MDA-MB-436 [35] = test: Antiproliferative activity against paclitaxel-resistant human MDA-MB-436 cells 20A clone up to 1000 nM after 72 hrs by ATPlite assay; assay type: functional, cell-based
MDA-MB-436 [36] = test: Antiproliferative activity against paclitaxel-resistant human MDA-MB-436 cells 20B clone up to 1000 nM after 72 hrs by ATPlite assay; assay type: functional, cell-based
Breast carcinoma cell [37] = test: Antitumor activity against chemo-refractory disease patient-derived breast cancer cells xenografted in NOD/SCID mouse assessed as tumor growth inhibition at 10 mg/kg, po qd administered via gavage for 15 days; assay type: functional, organism-based; conditions: Homo sapiens
Breast carcinoma cell [38] = test: Antitumor activity against chemo-refractory disease patient-derived breast cancer cells xenografted in NOD/SCID mouse assessed as tumor regression at 10 mg/kg, po qd administered via gavage for 60 days; assay type: functional, organism-based; conditions: Homo sapiens
Mus musculus [39] = test: Toxicity in NOD/SCID mouse xenografted with chemo-refractory disease patient-derived breast cancer cells at 10 mg/kg, po qd administered via gavage for 60 days; assay type: organism-based; conditions: in vivo, 1440 h

Chain of Cytochrome P450 3A4 (P08684 whole entry): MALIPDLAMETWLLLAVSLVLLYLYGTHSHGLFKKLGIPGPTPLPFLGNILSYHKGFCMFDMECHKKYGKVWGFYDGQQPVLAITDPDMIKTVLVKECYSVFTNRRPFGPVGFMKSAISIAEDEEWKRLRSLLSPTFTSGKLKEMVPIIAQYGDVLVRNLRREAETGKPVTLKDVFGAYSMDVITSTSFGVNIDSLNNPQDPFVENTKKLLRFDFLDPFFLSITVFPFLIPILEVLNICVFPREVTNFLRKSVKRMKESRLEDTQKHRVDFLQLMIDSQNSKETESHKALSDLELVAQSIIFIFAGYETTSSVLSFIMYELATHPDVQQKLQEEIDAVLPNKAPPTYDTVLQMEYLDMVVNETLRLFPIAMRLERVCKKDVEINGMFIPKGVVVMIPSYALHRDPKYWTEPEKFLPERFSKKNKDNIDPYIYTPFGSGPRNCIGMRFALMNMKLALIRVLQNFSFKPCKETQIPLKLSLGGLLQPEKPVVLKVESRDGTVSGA
Chain of Cytochrome P450 2D6 (P10635 whole entry): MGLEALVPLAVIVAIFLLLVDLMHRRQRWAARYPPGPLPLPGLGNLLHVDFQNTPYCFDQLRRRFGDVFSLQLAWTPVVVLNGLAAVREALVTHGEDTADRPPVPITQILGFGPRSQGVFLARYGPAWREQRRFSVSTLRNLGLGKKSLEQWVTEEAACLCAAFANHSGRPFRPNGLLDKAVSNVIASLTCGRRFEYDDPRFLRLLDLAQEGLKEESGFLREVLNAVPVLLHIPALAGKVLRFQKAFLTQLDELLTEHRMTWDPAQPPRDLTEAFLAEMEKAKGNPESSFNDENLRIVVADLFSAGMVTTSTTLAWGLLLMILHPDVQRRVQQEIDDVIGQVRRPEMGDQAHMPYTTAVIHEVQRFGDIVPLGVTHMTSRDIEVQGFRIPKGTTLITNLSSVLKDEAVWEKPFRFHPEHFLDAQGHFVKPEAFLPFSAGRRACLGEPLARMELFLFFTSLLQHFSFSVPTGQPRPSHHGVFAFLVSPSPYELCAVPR
Chain of Cytochrome P450 2C19 (P33261 whole entry): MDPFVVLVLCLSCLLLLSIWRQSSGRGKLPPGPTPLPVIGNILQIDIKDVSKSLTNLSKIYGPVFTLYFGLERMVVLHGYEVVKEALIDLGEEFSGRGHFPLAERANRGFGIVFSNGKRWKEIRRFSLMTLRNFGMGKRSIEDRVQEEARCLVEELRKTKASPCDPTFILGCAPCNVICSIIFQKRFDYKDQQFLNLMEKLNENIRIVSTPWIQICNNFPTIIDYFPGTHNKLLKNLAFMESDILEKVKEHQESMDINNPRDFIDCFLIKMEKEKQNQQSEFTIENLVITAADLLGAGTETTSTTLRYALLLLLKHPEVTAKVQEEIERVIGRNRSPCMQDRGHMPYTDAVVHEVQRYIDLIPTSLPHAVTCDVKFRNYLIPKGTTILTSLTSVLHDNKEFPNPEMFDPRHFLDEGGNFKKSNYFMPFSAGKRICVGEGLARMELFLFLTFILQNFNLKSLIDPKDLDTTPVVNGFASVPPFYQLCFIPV
Chain of Cytochrome P450 2C9 (P11712 whole entry): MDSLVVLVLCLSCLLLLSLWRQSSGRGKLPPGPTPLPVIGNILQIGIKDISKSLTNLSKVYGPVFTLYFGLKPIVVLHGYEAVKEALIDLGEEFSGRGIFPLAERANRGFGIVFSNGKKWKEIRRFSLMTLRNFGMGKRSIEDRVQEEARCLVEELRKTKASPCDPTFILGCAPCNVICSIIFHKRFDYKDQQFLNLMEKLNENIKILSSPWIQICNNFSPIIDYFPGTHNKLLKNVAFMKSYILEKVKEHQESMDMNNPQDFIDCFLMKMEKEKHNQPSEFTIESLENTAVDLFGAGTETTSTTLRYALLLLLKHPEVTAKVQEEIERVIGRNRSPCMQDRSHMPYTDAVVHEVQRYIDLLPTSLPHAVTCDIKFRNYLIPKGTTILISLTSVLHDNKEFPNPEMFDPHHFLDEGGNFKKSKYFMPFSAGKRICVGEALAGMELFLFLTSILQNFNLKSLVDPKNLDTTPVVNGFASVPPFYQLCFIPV

**Q.** What does the source list for O=C(Nc1ccc(-c2cccc(C3CC3)c2)cn1)c1cncnc1?
**A.** MTD [1]: ≤ 6 mg/kg; TGI (SNU-16 [2]): 74%; Tmax [3]: ≤ 0.25 h

**Q.** For CNC(=C[N+](=O)[O-])NCCSCc1ccc(CN(C)C)o1 [RANITIDINE], which efflux ratio at 2 h [4] is on record?
**A.** The efflux ratio at 2 h was 3.24.

**Q.** What about the Papp A→B at 2 h (in vitro [5]) of the same molecule?
**A.** Its Papp A→B at 2 h is 0.87 ×10⁻⁶ cm/s.

**Q.** And the Papp B→A at 2 h (in vitro [6])?
**A.** The Papp B→A at 2 h was 2.83 ×10⁻⁶ cm/s.

**Q.** For Cc1ncc(C(=O)Nc2ccc(-c3cccc(C4CC4)c3)cn2)cn1, which MTD [1] is on record?
**A.** The MTD was at most 6 mg/kg.

**Q.** What about the TGI (SNU-16 [2]) of the same molecule?
**A.** Its TGI is 73%.

**Q.** And the Tmax [3]?
**A.** Its Tmax is at most 0.25 h.

**Q.** Which MTD [1] does the source give for Cc1ncc(C(=O)Nc2ccc(-c3cccc(S(=O)(=O)C4CC4)c3)cn2)cn1 here?
**A.** The MTD was at most 6 mg/kg.

**Q.** And the TGI (SNU-16 [2])?
**A.** Its TGI is 109%.

**Q.** And the MTD [7]?
**A.** The MTD was at most 20 mg/kg.

**Q.** And the TGI (A2780 [8])?
**A.** The TGI was “Active”.

**Q.** What about the Activity (Mus musculus [9]) of the same molecule?
**A.** Its Activity is “Toxic”.

**Q.** What about the TGI (A2780 [10]) of the same molecule?
**A.** The TGI was “Active”.

**Q.** What about the Activity (Mus musculus [11]) of the same molecule?
**A.** The Activity was “Non-Toxic”.

**Q.** What about the Tmax [3] of the same molecule?
**A.** The Tmax was at most 0.25 h.

**Q.** And the fraction unbound [12]?
**A.** The fraction unbound was 0.022.

**Q.** What about the fraction unbound [13] of the same molecule?
**A.** The fraction unbound was 0.022.

**Q.** And the Drug recovery [14]?
**A.** The Drug recovery was 87.2%.

**Q.** And the remaining at 1.25 h [15]?
**A.** Its remaining at 1.25 h is 93%.

**Q.** And the remaining at 2 h [16]?
**A.** Its remaining at 2 h is 111%.

**Q.** What about the remaining at 4 h [17] of the same molecule?
**A.** Its remaining at 4 h is 103%.

**Q.** And the remaining at 8 h [18]?
**A.** Its remaining at 8 h is 102%.

**Q.** And the remaining at 24 h [19]?
**A.** The remaining at 24 h was 115%.

**Q.** And the half-life [20]?
**A.** Its half-life is 1.12 h.

**Q.** What about the half-life [21] of the same molecule?
**A.** The half-life was 1.33 h.

**Q.** And the half-life [22]?
**A.** Its half-life is 0.832 h.

**Q.** What about the half-life [23] of the same molecule?
**A.** Its half-life is 2.41 h.

**Q.** And the IC50 (Cytochrome P450 1A2)?
**A.** The IC50 was over 30 µM.

**Q.** And the IC50 (Cytochrome P450 2C9)?
**A.** The IC50 was over 30 µM.

**Q.** What about the IC50 (Cytochrome P450 2C19) of the same molecule?
**A.** The IC50 was over 30 µM.

**Q.** What about the IC50 (Cytochrome P450 2D6) of the same molecule?
**A.** The IC50 was over 30 µM.

**Q.** And the IC50 (Cytochrome P450 3A4)?
**A.** Its IC50 is over 30 µM.

**Q.** What about the efflux ratio at 2 h [4] of the same molecule?
**A.** Its efflux ratio at 2 h is 1.02.

**Q.** What about the TGI (SNU-16 [24]) of the same molecule?
**A.** The TGI was “Active”.

**Q.** What about the TGI (MFE-296 [25]) of the same molecule?
**A.** The TGI was “Active”.

**Q.** And the Activity (Mus musculus [26])?
**A.** The Activity was “Toxic”.

**Q.** And the TGI (MFE-296 [27])?
**A.** Its TGI is over 85%.

**Q.** And the Activity (Mus musculus [28])?
**A.** The Activity was “Non-Toxic”.

**Q.** And the Activity (Hs-578T [29])?
**A.** The Activity was “Active”.

**Q.** And the Activity (BT-549 [30])?
**A.** The Activity was “Active”.

**Q.** What about the Activity (MDA-MB-436 [31]) of the same molecule?
**A.** The Activity was “Active”.

**Q.** What about the Activity (Hs-578T [32]) of the same molecule?
**A.** Its Activity is “Active”.

**Q.** What about the Activity (Hs-578T [33]) of the same molecule?
**A.** Its Activity is “Active”.

**Q.** And the Activity (BT-549 [34])?
**A.** The Activity was “Active”.

**Q.** And the Activity (MDA-MB-436 [35])?
**A.** Its Activity is “Active”.

**Q.** And the Activity (MDA-MB-436 [36])?
**A.** The Activity was “Active”.

**Q.** What about the TGI (Breast carcinoma cell [37]) of the same molecule?
**A.** Its TGI is “Active”.

**Q.** What about the Activity (Breast carcinoma cell [38]) of the same molecule?
**A.** The Activity was “Active”.

**Q.** What about the Activity (Mus musculus [39]) of the same molecule?
**A.** The Activity was “Non-Toxic”.

**Q.** And the Papp A→B at 2 h (in vitro [5])?
**A.** The Papp A→B at 2 h was 25.7 ×10⁻⁶ cm/s.

**Q.** And the Papp B→A at 2 h (in vitro [6])?
**A.** The Papp B→A at 2 h was 26.1 ×10⁻⁶ cm/s.
